Experimental data reported in patent publication US20260001892A1, “COMPOUND FOR REGULATING AND CONTROLLING ACTIVITY OF 15-PGDH AND PREPARATION METHOD THEREFOR” (SCINNOHUB PHARMACEUTICAL CO., LTD., priority 2022, published 2026).

Target: 15-PGDH (Homo sapiens (Human), UniProt P15428)
Assay: Detection of activity of 15-PGDH enzyme
Assay type: biochemical
Settings: inhibitory activity against 15-PGDH enzyme; substrates β-NAD and PGF2α; fluorescence Ex/Em=340/450
Description: • a. A solution of pH 7.5 containing 50 mM Tris-HCl, 0.01% Tween 20 was prepared with ultrapure water as a reaction buffer; • b. A 10 mM mother liquor of the compound to be tested was prepared with DMSO, and then the reaction buffer was used to dilute the mother liquor of the compound to be tested to obtain solution 1 of the compound to be tested at a concentration of 40,000 nM, and then the solution 1 of the compound to be tested was serially diluted into solutions 2-9 (or 2-12) of the compound to be tested at 9 (or 11) concentrations with a gradient difference of three-fold. 5 μL of each concentration of solutions of the compound to be tested was respectively taken and added into a 384-well plate as test wells; • c. 5 μL of the reaction buffer was then added to the blank wells of the 384-well plate as positive control and blank control wells, respectively; • d. The reaction buffer was used to prepare a 15-PGDH protein solution at a concentration of 5 ng/μL, 5 μL of the 15-PGDH protein solution was taken and added to the test wells and positive control wells, and meanwhile 5 μL of the reaction buffer was added to the blank control wells, then the plate was centrifuged at 2000 rpm for 30 seconds; • e. The reaction buffer was used to prepare 5 mM $3-NAD and 2 mM PGF2α, respectively, which were mixed at 1:1 by volume to obtain a substrate mixture, 10 μL of the substrate mixture was taken and added to the test wells, positive control wells and blank control wells to start the reaction; • f. The fluorescence signal value (Ex/Em=340/450) of each well was detected continuously by using a multifunctional microplate reader.
• a) Continuous fluorescence signal values were analyzed by using the “kinetic calculations-slope calculation method” in the PHERAstar Data analysis software to obtain the slope of each test well; • b) The inhibition rate % was calculated by using the following formula: inhibition rate %=[1−(slope of test well-signal value of positive control well)/(signal value of blank control well-average signal value of positive control well)]×100%. • c) Calculation of IC50 and plotting of inhibition rate-dose curves: IC50 values were calculated by fitting compound concentrations and corresponding inhibition rates with a nonlinear regression (dose response-variable slope) via using GraphPad Prism 6.0. The formula was shown below:
Y=Bottom+(Top−Bottom)/(1+10^((Log IC50−X)*HillSlope)), wherein X is a log value of a concentration of the compound, and Y is inhibition rate %.

Chain of 15-PGDH (P15428 whole entry): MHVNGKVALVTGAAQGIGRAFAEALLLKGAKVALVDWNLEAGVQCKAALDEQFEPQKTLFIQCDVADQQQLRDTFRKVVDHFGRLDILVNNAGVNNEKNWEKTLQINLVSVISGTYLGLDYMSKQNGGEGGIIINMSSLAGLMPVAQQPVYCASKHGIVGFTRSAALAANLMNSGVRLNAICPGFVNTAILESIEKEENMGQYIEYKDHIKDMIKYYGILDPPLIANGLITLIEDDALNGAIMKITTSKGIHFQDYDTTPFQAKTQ

Row | Structure (SMILES) | IC50 [nM]
1 | Cc1c(C(=O)N2CCCCC2)sc2nc(-c3ccccc3)cnc12 [Example 96] | 10 to 20
2 | CCc1c(C(=O)N2CCCCC2)sc2nc(-c3ccccc3)cnc12 [Example 97] | 3 to 10
3 | CC(C)c1c(C(=O)N2CCCCC2)sc2nc(-c3ccccc3)cnc12 [Example 99] | 10 to 20
4 | O=C(c1cc2ncc(-c3ccccc3)nc2s1)N1CCCCC1 [Example 100] | 10 to 20
5 | O=C(c1sc2nc(-c3ccccc3)cnc2c1O)N1CCCCC1 [Example 101] | 50 to 100

Next, values leading:

Row | IC50 [nM] | Structure (SMILES)
6 | 3 to 10 | O=C(c1sc2nc(-c3cncnc3)cnc2c1C(F)(F)F)N1CCCCC1 [Example 91]
7 | 3 to 10 | CN1Cc2cc(-c3cnc4c(C(F)(F)F)c(C(=O)N5CCCCC5)sc4n3)ccc2C1=O [Example 94]
8 | 3 to 10 | COc1c(C(=O)N2CCCCC2)sc2nc(-c3ccccc3)cnc12 [Example 95]
9 | < 3 | O=C(c1sc2nc(-c3ccccc3)cnc2c1Br)N1CCCCC1 [Example 98]
